Literature values, collected in patent US20070142395A1, “Treatment of sexual dysfunction with 1-[3-[4-(3-chlorophenyl)-1-piperazinyl]propyl]-5-methoxy-3,4-dihydro-2(1H)-quinolone or salt thereof” (Vela Pharmaceuticals, Inc., priority 2005, published 2007).

Details: SSRI/SNRI antidepressant therapy; Montejo et al. 2001; cited from earlier work

Row | Compound | incidence of sexual dysfunction as side effect
1 | CN(C)CCCC1(c2ccc(F)cc2)OCc2cc(C#N)ccc21 (centres unmarked) [citalopram] | 72.7%
2 | CNCCC(Oc1ccc(C(F)(F)F)cc1)c1ccccc1 (centres unmarked) [fluoxetine] | 57.7%
3 | Fc1ccc([C@@H]2CCNC[C@H]2COc2ccc3c(c2)OCO3)cc1 [paroxetine] | 70.7%
4 | CN[C@H]1CC[C@@H](c2ccc(Cl)c(Cl)c2)c2ccccc21 [sertraline] | 62.9%
5 | COc1ccc(C(CN(C)C)C2(O)CCCCC2)cc1 (centres unmarked) [venlafaxine] | 67.3%
